Test results taken from patent publication US20070015828A1 (Wyeth, priority 2005, published 2007).

What was measured:
[1] = tested on: Adenosine A1; test: Receptor binding assay: Adenosine A1; conditions: Test Compound @ 10 1 M
[2] = molecular target: T1, Adrenergic, Alpha 1A (Rattus norvegicus, UniProt P43140); test: Receptor binding assay: Adrenergic Alpha 1A; conditions: Test Compound @ 10 1 M
T1 construct: Novascreen (assay provider)

[3] = molecular target: T2, Adrenergic, Alpha 2A (h) (Homo sapiens, UniProt P08913); test: Receptor binding assay: Adrenergic Alpha 2A; conditions: Test Compound @ 10 1 M
T2 construct: Novascreen (assay provider)
T2 sequence (P08913 whole entry): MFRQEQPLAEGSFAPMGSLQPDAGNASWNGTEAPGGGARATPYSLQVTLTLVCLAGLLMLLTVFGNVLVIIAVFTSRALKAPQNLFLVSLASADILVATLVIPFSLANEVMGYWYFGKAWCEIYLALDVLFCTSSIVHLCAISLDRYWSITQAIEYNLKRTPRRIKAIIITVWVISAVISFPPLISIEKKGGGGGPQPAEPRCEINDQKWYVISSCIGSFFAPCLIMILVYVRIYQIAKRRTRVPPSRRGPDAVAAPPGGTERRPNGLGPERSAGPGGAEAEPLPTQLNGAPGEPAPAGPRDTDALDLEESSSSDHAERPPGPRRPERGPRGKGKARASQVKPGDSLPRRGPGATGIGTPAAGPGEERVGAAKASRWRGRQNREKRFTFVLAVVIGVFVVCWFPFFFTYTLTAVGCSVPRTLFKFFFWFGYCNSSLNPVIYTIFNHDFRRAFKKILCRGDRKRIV

[4] = molecular target: Adrenergic, Alpha 2C (hr) (Homo sapiens, UniProt P18825); test: Receptor binding assay: Adrenergic Alpha 2C; conditions: Test Compound @ 10 1 M
Chain of Adrenergic, Alpha 2C (hr) (P18825 whole entry): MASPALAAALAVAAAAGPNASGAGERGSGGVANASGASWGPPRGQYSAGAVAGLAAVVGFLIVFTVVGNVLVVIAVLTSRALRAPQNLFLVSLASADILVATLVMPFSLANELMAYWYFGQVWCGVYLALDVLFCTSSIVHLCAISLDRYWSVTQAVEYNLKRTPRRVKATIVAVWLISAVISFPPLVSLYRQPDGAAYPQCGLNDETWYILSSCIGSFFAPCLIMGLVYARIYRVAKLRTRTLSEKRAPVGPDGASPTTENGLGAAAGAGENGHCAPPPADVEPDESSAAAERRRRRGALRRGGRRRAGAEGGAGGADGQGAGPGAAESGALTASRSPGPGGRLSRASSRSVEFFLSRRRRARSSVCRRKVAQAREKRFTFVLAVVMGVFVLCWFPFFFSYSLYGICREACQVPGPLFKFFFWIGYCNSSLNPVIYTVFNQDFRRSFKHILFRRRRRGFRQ

[5] = molecular target: Adrenergic, Beta 1 (hr) (Homo sapiens, UniProt P08588); test: Receptor binding assay: Adrenergic Beta 1; conditions: Test Compound @ 10 1 M
[6] = molecular target: Cannabinoid, CB1 (hr) (Homo sapiens, UniProt P21554); test: Receptor binding assay: Cannabinoid CB1; conditions: Test Compound @ 10 1 M
Chain of Cannabinoid, CB1 (hr) (P21554 whole entry): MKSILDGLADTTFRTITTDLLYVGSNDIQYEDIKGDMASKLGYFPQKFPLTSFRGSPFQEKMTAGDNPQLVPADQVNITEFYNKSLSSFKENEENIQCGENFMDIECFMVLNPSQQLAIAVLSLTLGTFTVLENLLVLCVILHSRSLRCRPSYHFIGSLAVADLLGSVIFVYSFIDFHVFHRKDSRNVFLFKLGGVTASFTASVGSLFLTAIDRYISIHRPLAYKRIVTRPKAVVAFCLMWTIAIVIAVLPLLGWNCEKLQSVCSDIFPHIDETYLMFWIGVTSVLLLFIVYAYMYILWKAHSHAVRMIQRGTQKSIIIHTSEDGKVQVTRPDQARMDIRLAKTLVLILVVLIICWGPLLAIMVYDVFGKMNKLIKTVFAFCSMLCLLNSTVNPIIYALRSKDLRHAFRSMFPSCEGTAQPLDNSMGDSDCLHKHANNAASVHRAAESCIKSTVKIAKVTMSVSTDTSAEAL

[7] = molecular target: Cannabinoid, CB2 (hr) (Homo sapiens, UniProt P34972); test: Receptor binding assay: Cannabinoid CB2; conditions: Test Compound @ 10 1 M
Chain of Cannabinoid, CB2 (hr) (P34972 whole entry): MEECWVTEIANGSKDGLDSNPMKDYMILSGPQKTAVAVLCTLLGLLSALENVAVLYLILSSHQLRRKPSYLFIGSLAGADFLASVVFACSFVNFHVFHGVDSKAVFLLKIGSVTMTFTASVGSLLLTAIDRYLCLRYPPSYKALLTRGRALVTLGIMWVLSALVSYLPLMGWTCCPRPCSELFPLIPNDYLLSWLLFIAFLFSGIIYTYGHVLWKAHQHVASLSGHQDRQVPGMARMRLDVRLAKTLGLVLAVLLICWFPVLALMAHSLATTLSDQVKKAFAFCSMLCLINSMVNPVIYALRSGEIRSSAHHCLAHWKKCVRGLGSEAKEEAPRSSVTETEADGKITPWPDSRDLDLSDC

[8] = molecular target: Dopamine, D3 (hr) (Homo sapiens, UniProt P35462); test: Receptor binding assay: Dopamine D3; conditions: Test Compound @ 10 1 M
Chain of Dopamine, D3 (hr) (P35462 whole entry): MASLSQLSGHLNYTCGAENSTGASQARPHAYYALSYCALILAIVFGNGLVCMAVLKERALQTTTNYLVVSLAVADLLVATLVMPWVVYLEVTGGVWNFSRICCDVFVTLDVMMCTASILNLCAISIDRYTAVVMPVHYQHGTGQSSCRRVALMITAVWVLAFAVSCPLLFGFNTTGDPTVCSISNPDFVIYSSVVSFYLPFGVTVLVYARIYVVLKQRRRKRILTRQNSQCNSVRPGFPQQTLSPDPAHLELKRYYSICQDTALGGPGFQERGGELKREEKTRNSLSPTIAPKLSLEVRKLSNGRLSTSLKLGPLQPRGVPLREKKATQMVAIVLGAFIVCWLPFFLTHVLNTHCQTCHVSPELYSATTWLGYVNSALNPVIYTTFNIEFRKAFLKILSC

[9] = tested on: GABA A, Benzo, central; test: Receptor binding assay: GABA A benzo central; conditions: Test Compound @ 10 1 M
[10] = tested on: Glutamate, AMPA Site; test: Receptor binding assay: Glutamate AMPA site; conditions: Test Compound @ 10 1 M
[11] = tested on: Glutamate, Kainate Site; test: Receptor binding assay: Glutamate Kainate site; conditions: Test Compound @ 10 1 M
[12] = tested on: Glutamate, NMDA agonist Site; test: Receptor binding assay: Glutamate NMDA agonist site; conditions: Test Compound @ 10 1 M
[13] = tested on: Glycine, Strychnine-sensitive; test: Receptor binding assay: Glycine strychnine-sensitive; conditions: Test Compound @ 10 1 M
[14] = molecular target: T3, Muscarinic, M3 (hr) (Homo sapiens, UniProt P20309); test: Receptor binding assay: Muscarinic M3; conditions: Test Compound @ 10 1 M
T3 construct: Novascreen (contract assay)

[15] = molecular target: T4, Muscarinic, M4 (hr) (Homo sapiens, UniProt P08173); test: Receptor binding assay: Muscarinic M4; conditions: Test Compound @ 10 1 M
T4 construct: Novascreen (contract assay)
T4 sequence (P08173 whole entry): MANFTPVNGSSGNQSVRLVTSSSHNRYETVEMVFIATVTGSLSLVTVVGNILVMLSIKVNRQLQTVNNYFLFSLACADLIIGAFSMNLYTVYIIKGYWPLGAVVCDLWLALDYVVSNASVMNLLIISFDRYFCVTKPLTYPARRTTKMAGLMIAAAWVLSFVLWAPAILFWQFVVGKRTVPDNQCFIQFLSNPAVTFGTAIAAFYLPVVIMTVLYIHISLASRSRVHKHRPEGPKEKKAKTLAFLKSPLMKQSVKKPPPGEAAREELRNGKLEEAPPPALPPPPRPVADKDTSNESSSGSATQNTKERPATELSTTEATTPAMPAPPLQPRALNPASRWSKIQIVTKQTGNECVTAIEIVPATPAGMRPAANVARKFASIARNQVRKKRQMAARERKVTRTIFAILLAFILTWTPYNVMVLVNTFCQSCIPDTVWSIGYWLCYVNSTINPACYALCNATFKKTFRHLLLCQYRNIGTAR

[16] = tested on: Nicotinic (a-bungarotoxin insens); type: binding; conditions: Test Compound @ 10 1 M
[17] = molecular target: T5, Norepinephrine transporter (Homo sapiens, UniProt P23975); test: Norepinephrine transporter (human recombinant) binding assay
T5 construct: Novascreen (contract assay)
T5 sequence (P23975 whole entry): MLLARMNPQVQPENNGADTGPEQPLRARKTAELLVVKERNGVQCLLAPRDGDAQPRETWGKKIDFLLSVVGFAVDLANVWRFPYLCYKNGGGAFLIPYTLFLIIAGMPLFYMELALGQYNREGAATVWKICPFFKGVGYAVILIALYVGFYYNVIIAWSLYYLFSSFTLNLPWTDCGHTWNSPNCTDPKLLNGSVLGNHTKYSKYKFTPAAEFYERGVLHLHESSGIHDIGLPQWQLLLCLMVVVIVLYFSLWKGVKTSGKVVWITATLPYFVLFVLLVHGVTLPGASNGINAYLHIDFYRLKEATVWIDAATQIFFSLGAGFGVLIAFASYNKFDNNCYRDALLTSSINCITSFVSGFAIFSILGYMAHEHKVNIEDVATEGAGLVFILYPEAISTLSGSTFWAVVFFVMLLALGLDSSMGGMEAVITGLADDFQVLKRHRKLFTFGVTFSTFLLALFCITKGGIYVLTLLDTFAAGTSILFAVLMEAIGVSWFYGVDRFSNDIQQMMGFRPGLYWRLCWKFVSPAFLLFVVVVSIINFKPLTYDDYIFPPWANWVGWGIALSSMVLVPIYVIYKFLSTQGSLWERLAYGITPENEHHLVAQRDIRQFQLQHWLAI

[18] = molecular target: T6, Oxidase, MAO-A, Central (Rattus norvegicus, UniProt P21396); test: Receptor binding assay: Oxidase MAO-A central (first line); conditions: Test Compound @ 10 1 M
T6 construct: Novascreen (contract assay)
T6 sequence (P21396 whole entry): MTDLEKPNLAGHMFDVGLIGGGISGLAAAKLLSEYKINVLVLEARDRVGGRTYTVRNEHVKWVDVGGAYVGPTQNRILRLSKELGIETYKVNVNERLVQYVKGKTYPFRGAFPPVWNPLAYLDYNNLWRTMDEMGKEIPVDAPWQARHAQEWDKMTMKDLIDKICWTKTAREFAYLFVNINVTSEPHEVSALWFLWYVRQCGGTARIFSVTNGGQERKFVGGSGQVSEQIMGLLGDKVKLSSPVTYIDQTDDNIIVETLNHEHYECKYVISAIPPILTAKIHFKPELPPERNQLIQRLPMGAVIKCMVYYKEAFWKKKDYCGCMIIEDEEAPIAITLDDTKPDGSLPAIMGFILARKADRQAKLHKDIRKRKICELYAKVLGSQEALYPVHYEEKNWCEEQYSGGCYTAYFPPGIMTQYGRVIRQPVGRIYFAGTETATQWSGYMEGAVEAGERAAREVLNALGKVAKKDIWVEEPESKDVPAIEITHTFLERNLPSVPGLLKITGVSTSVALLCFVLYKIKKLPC

[19] = tested on: Serotonin, 5HT2C; test: Receptor binding assay: Serotonin 5HT2C; conditions: Test Compound @ 10 1 M
[20] = tested on: Serotonin, 5HT4; test: Receptor binding assay: Serotonin 5HT4; conditions: Test Compound @ 10 1 M
[21] = molecular target: T7, Serotonin, 5HT5A (hr) (Homo sapiens, UniProt P47898); test: Receptor binding assay: Serotonin 5HT5A; conditions: Test Compound @ 10 1 M
T7 construct: Novascreen (contract assay)
T7 sequence (P47898 whole entry): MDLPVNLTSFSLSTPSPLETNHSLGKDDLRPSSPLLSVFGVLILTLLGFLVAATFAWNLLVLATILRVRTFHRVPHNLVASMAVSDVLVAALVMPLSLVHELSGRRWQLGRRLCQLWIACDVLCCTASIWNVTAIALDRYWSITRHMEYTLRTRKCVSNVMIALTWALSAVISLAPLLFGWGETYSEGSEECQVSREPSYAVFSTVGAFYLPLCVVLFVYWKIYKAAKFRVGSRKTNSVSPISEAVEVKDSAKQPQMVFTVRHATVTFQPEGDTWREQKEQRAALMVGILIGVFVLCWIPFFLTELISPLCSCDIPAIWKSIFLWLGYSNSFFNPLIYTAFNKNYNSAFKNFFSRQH

[22] = In vitro metabolism in hepatic microsomes, dog; type: in vitro ADME; conditions: male dogs, read-out: t1/2 in hepatic microsomes
Experimental: (§1) In vitro metabolism of 1-[2-dimethylamino-1-(4-phenol)ethyl]-cis-1,4-cyclohexandiol was conducted in the hepatic microsomes of Sprague-Dawley rats, male dogs, male monkeys and mixed male and female humans to characterize metabolic stability and identification of metabolites. 1-[2-dimethylamino-1-(4-phenol)ethyl]-cis-1,4-cyclohexandiol was stable (t1/2>60 minutes) in hepatic microsomes indicating Phase I and II metabolism was minimal in all species.

[23] = In vitro metabolism in hepatic microsomes, monkey; type: in vitro ADME; conditions: male monkeys, read-out: t1/2 in hepatic microsomes
Experimental: as §1

[24] = Pharmacokinetics in dog; type: in vivo; conditions: plasma, male dogs
Experimental: Preclinical pharmacokinetics of 1-[2-dimethylamino-1-(4-phenol)ethyl]-cis-1,4-cyclohexandiol was determined after a single 2.5 mg/kg IV bolus and 7.5 mg/kg oral dose in male dogs. […] The oral bioavailability was high (60%).

[25] = tested on: cortical 5-HT; test: Microdialysis study, rat dorsal lateral frontal cortex; type: in vivo; conditions: male Sprague-Dawley rats, 30 mg/kg, combined with 5-HT1A antagonist WAY-100635 (0.3 mg/kg, s.c.) given 20 min before
Experimental: 1-[2-dimethylamino-1-(4-phenol)ethyl]-cis-1,4-cyclohexandiol was evaluated in a microdialysis study conducted in male Sprague-Dawley rats [M T Taber et al, Differential effects of coadministration of fluoxetine and WAY-100635 on serotonergic neurotransmission in vivo: sensitivity to sequence of injections, Synapse, 2000 October; 38(1):17-26.] This technique can capture the neurochemical effects of compounds in the brains of freely-moving rodents. The effects of 1-[2-dimethylamino-1-(4-phenol)ethyl]-cis-1,4-cyclohexandiol were studied in the rat dorsal lateral frontal cortex, a brain region thought to be involved in etiology and/or treatment of depression. To see whether any effects on serotonin could be observed, the compound (30 mg/kg, sc) was tested in combination with the selective 5-HT1A antagonist, N-[2-[4-(2-methoxyphenyl)-1-piperazinyl] ethyl]-N-(2-pyridinyl)cyclohexanecarboxamide (WAY-100635). […]
• 24 hr post-operative recovery • 3 hr equilibration after probe insertion • 1 hr 40 min baseline • 5-HT1A antagonist N-[2-[4-(2-methoxyphenyl)-1-piperazinyl]ethyl]-N-(2-pyridinyl)cyclohexanecarboxamide [WAY-100635] (0.3 mg/kg, s.c.) given 20 min before 1-[2-dimethylamino-1-(4-phenol)ethyl]-cis-1,4-cyclohexandiol (30 mg/kg, […]) Sample Collection: Samples collected for 3 hr 2 min post-injections Analysis: 5-HT levels quantified by HPLC-ECD

[26] = tested on: rat hot plate assay; test: Rat hot plate assay (acute pain); type: in vivo; conditions: up to 30 mg/kg po
[27] = tested on: rat tail flick assay; test: Rat tail flick assay (acute pain); type: in vivo; conditions: up to 30 mg/kg po

T1 sequence (P43140 whole entry): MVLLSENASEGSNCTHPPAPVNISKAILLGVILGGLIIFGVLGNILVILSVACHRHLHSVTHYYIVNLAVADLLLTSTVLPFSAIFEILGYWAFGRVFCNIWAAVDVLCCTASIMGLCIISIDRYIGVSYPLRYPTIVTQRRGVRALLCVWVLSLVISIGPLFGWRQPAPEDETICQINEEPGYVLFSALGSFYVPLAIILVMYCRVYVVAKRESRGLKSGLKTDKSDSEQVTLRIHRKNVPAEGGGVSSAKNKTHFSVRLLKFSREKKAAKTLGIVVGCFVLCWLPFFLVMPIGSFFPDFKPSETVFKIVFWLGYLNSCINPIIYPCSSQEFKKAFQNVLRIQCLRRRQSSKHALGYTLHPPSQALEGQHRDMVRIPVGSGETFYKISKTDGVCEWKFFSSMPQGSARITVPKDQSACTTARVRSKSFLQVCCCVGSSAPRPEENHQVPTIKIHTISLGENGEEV

## CN(C)CC(c1ccc(O)cc1)C1(O)CCC(O)CC1 (stereo not drawn) [1-[2-dimethylamino-1-(4-phenol)ethyl]-cis-1,4-cyclohexandiol]
[1]
  Receptor Binding % Inhibition: −8.51%
[2]
  inhibition at 10 µM: -1.96%
[3]
  inhibition at 10 µM: 10.4%
[4]
  inhibition at 10 µM: 3.06%
[5]
  inhibition at 10 µM: 7.65%
[6]
  inhibition at 10 µM: 8.11%
[7]
  inhibition at 10 µM: 15.7%
[8]
  inhibition at 10 µM: 3.36%
[9]
  Receptor Binding % Inhibition: 0.20%
[10]
  Receptor Binding % Inhibition: 2.50%
[11]
  Receptor Binding % Inhibition: −0.51%
[12]
  Receptor Binding % Inhibition: −2.99%
[13]
  Receptor Binding % Inhibition: −2.38%
[14]
  inhibition at 10 µM: 0.11%
[15]
  inhibition at 10 µM: -3.52%
[16]
  Receptor Binding % Inhibition: −1.07%
[17]; Norepinephrine transporter, Test Compound @ 10 1 M, read-out: Receptor Binding % Inhibition
  inhibition at 10 µM: 49.7%
[17]; interpretation of the binding data in words
  norepinephrine reuptake inhibition activity: acceptable
[18]
  inhibition at 10 µM: -0.11%
[19]
  Receptor Binding % Inhibition: 10.05%
[20]
  Receptor Binding % Inhibition: 3.98%
[21]
  inhibition at 10 µM: 19.9%
[22]
  half-life: > 1 h
[23]
  half-life: > 1 h
[24]; 7.5 mg/kg oral vs 2.5 mg/kg IV
  bioavailability: 60%
[24]; single 2.5 mg/kg IV bolus
  clearance: ~7 mL/min/kg
[24]; single 2.5 mg/kg IV bolus, read-out: apparent terminal half-life (t1/2) (converted)
  half-life: 5.6 h
[24]; single 2.5 mg/kg IV bolus, read-out: apparent volume of distribution (VSS)
  Vd: 1.9 L/kg
[24]; single oral dose of 7.5 mg/kg, read-out: terminal oral half-life (converted)
  half-life: 6 h
[25]
  cortical 5-HT levels: Robust elevations
[26]
  effect on acute pain: not found to affect acute pain
[27]
  effect on acute pain: not found to affect acute pain
